Results on two compounds are retold here after patent publication US20230255943A1, “MMP-9 AND MMP-12 INHIBITION FOR TREATING SPINAL CORD INJURY OR RELATED INJURY TO NEUROLOGICAL TISSUE” (The University of Birmingham, priority 2020, published 2023).

For experiment [1], the system named is other members of the enzyme family. The experiment is described as follows: Selectivity to other members of the enzyme family. The class given is biochemical, human. The settings on record: relative to MMP-9 and MMP-12.
A further experiment relates to IL-1β, TNF-α and IL-6. Nature of the experiment: Proinflammatory pain markers after CC SCI in mice. The class given is in vivo, mouse. The settings on record: oral gavage immediately after injury. As to the method: CC SCI was administered at the T7-T8 vertebral level after exposure of T6-T9 by laminectomy. The aneurysm clip applicator was oriented in a bilateral direction and an aneurysm clip with a closing force of 24 g was applied extradurally for 60 s, as described previously (A. S. Rivlin, C. H. Tator, Effect of duration of acute spinal cord compression in a new acute cord injury model in the rat. Surg Neurol 10, 38-43 (1978):E. Esposito, I. Paterniti, E. Mazzon, T. Genovese, M. Galuppo, R. Meli, P. Bramanti, S. Cuzzocrea, MK801 attenuates secondary injury in a mouse experimental compression model of spinal cord trauma. BMC Neurosci 12, 31 (2011)).
The urinary bladders were manually emptied twice daily until bladder function was regained. Adult male C57BL6 mice (25-30 g) (Charles River, Margate, UK) were randomly allocated to either: (1), Sham (control; laminectomy but no CC SCI); (2), CC SCI+vehicle; (3), CC SCI+200 mg/kg AZD1236 (oral); (4), CC SCI+5 mg/kg AZD1236 (it). All experiments were performed with n=6 mice/group and repeated on 3 independent occasions (total=18 mice/group/test).
The lesion site+5 mm either side (DC and CC SCI, n=6 mice/rats/group, 2 independent repeats (total n=12 mice/rats/group)) was dissected and rapidly frozen in liquid N2 and stored at −80° C. until required. […] The levels of mRNA of MMP-9, MMP-12, IL-1β, TNF-α and IL-6 were determined using pre-validated mouse primer sequences from complimentary DNA prepared from extracted mRNA and qRT-PCR was performed using a LightCycler PCR machine (Roche, Burgess Hill, UK) (M. L. Read, S. Mir, R. Spice, R. J. Seabright, E. L. Suggate, Z. Ahmed, M. Berry, A. Logan, Profiling RNA interference (RNAi)-mediated toxicity in neural cultures for effective short interfering RNA design. J Gene Med 11, 523-534 (2009)). […] Fold changes were computed using the ΔΔCt method (M. L. Read, S. Mir, R. Spice, R. J. Seabright, E. L. Suggate, Z. Ahmed, M. Berry, A. Logan, Profiling RNA interference (RNAi)-mediated toxicity in neural cultures for effective short interfering RNA design. J Gene Med 11, 523-534 (2009).

The subject of experiment [2] is mice with DC crush injury. The experiment is described as follows: Spinal cord water content (oedema) after DC crush injury in mice. The settings on record: IP, twice daily. The class given is in vivo, mouse.

A value given as a limit tells only on which side of the number the result lay.

With `C[C@]1(CS(=O)(=O)N2CC=C(C#Cc3cnc(C4CC4)nc3)CC2)NC(=O)NC1=O` [AZD1236], the “selectivity to other members of the enzyme family” value in experiment [1] is given as greater than 350 fold. In addition, in the experiment with IL-1β, TNF-α and IL-6, the “proinflammatory pain markers after CC injury, comparison with pain medications (FIG. 7)” value is on record as “significantly attenuates”.
As to `CCN(CC)Cc1cc(C)c(N(Cc2ccccc2)S(=O)(=O)c2ccc(OC)cc2)c(C(=O)NO)c1` [MMP-9 Inhibitor I, reference compound], the “SCI-induced oedema with tool inhibitors singly or in combination (FIG. 3D)” value in experiment [2] is reported as “suboptimal therapeutic benefits”.
